Source: patent US8900444B2, “Switchable hydrophilicity solvents and methods of use thereof” (Queen's University at Kingston, priority 2009, dated 2014)
“Also recorded” adds a separate entry of the source.

How the values were obtained:
Type in all cases: physicochemical
[1] = Quantitative switching study of BA by 1H NMR (Example 1D)
Method: A methanol-d4 solution was prepared containing a sodium acetate internal standard (48.8 mM).
Two 4 mL glass vials containing 1.0 mL D2O and 0.5 mL BA were prepared and shaken. A 50 μL sample was withdrawn from each layer of one vial and combined with 0.50 mL of the sodium acetate standard solution in each of two NMR tubes: the top layer (BA) in a first tube; the bottom layer (aqueous) in a second tube.
Carbon dioxide was bubbled through the unsampled vial until the BA had completely converted to BAB, as evidenced by the disappearance of the top layer. The pH of the solution was measured using pH paper to be approximately 8-9. A 50 μL sample was withdrawn from the BAB/D2O solution and added to 0.50 mL of the sodium acetate standard solution in a third NMR tube.
The 4.0 mL vial from which the last NMR sample was withdrawn was then heated at 80° C. for 1 h and stirred by a magnetic stirrer. Bubbles of CO2 were observed escaping from the solution and a top layer, hydrophobic amidine, appeared. After cooling the vial to room temperature, a 50 μL sample was withdrawn from each layer and combined with 0.50 mL of the sodium acetate standard in two NMR tubes: the top layer (BA) in a fourth tube; the bottom layer (aqueous) in a fifth tube.
The NMR spectra of all five samples are shown in FIG. 10 with the first to fifth tubes shown from top to bottom. […] In addition, using the ‘c’ and ‘d’ protons provided stronger signals, to improve accuracy. Based on the strength of the ‘c’ and ‘d’ signals, 11% of the BA remained in the aqueous phase as BAB after the experiment
Using dioxane as the internal standard gave the same results (11% BAB retention in the aqueous phase) as sodium acetate.
The same experiment was repeated except that the temperature of the heating of the 4.0 mL vial was increased from 80° C. to 90° C. A similar retention of BAB in the aqueous phase (12%) was observed.

[2] = Separation of switchable solvent from soybean oil with CO2/carbonated water (Examples 2A, 2C)
Method: A 4 mL vial was prepared containing 1.0 mL D2O, 0.5 mL BA and 0.5 mL soybean oil. The vial was shaken thoroughly and allowed to settle, showing a 1.0 mL upper layer (soybean oil and BA) and a 1.0 mL lower layer (D2O). ^1H NMR samples (50 μL) were withdrawn from each layer and mixed with methanol-d4 (0.5 mL) containing a dioxane internal standard (51.5 mM). Another sample was withdrawn from the upper layer for ^1H NMR analysis in CDCl3, because soybean oil is not miscible with methanol. The same volume was discarded from the bottom layer to maintain the initial ratio.
CO2 was bubbled through the system for 1.5 h, at which time the top layer appeared to have halved in volume. Using the same system, ^1H NMR analysis was again conducted on both layers, the bottom layer in methanol-d4 and the top layer in CDCl3.
A 1.0 mL portion of the bottom layer was withdrawn and transferred to a new 4.0 mL vial. A magnetic stirrer was added and the vial was stirred at 80° C. for 1 h. Samples were withdrawn from both layers for ^1H NMR analysis in methanol-d4 with reference to the dioxane internal standard.
The switching behavior of BA in the presence of soybean oil was studied qualitatively and by ^1H NMR spectroscopy as shown in FIG. 11. The top spectrum is that of soy oil. The middle spectrum is that of the upper (organic) phase after the mixing of the BA, soy oil and D2O. This upper phase comprises soy oil and BA. The bottom spectrum is that of the upper (organic) phase after the addition of the CO2 trigger and comprises predominantly soy oil and any residual solvent.
The most informative ^1H NMR spectra in this experiment were those showing the separation of the soy oil and BA. Based on the integration of the peak corresponding to BA at 3.17 ppm in these spectra, 96% of the amidine was removed from the upper soybean oil layer after switching to its hydrophilic BAB form. Other spectra (not shown), collected in methanol-d4 with a dioxane internal standard, confirmed the switching behavior presented in Example 1 above, showing 11% retention of BA in the aqueous phase after heating.
It was possible to remove a high percentage of N1,N1,N4,N4-tetraethylbutane-1,4-diamine from the soybean oil be mixing with carbonated water. The percentage removal was 98.65%. In contrast, 96% of BA was removed from the soybean oil.

[3] = Regeneration of BA from aqueous BAB using air (Example 1C)
Method: Switching behavior was studied for an aqueous solution of BAB. A glass vial (4 mL) was prepared, containing distilled water (1.0 mL) and BA (1.0 mL) as a two-phase mixture. CO2 was bubbled through the vial for roughly 30 minutes, until the top layer had disappeared showing that a single-phase solution of BAB in water had been formed.
Air was then bubbled through the same glass vial with the single-phase solution for approximately 5 hours at room temperature to displace CO2 from the solution. The formation of a second layer (hydrophobic BA) was noted.

[4] = Polarity study with solvatochromatic dye Nile Red (Example 3); details: water-saturated BA or aqueous solution of BAB
Method: The maximum wavelength of absorption, λmax, of a switchable hydrophilicity solvent, N,N,N′-tributylpentanamidine (BA), was analyzed in its hydrophobic and hydrophilic forms using the solvatochromatic dye, Nile Red. A 1 Dram vial was prepared containing 1 mL of distilled water to which 1 mL of BA was added. […] This ensured saturation of the BA phase with water. The top phase comprising the BA liquid was pipetted into a quartz cuvette (Semi-Micro Cells, Self Masking Black Walls Spectrosil® Quartz, Starna Cells, Atascadero, Calif., USA) and 1 mg of Nile Red was added, to provide a bright orange-magenta solution. The ultraviolet absorbance spectrum was acquired on an Agilent Technologies ultraviolet/visible spectrometer 50-60 Hz with UV-Visible Chemstation software. The λmax was 510 nm. Distilled water (1.0 mL) was then added to the quartz cuvette and carbon dioxide was slowly bubbled into the mixture for 1 hour to switch the BA to its ionic form, N,N,N′-tributylpentanamidinium bicarbonate (BAB), after which the homogenous mixture turned purple. The ultraviolet absorbance spectrum of the aqueous solution of the dye and ionic salt was then acquired as discussed in the previous paragraph. The λmax was 570 nm.

CCCCN=C(CCCC)N(CCCC)CCCC [BA, N,N,N′-tributylpentanamidine]
BA remaining in the aqueous phase as BAB after heating ([1]; 80 °C, 1 h, sodium acetate internal standard): 11%
BA recovered when amidinium bicarbonate solution is heated ([1]; from 1H NMR peak integrations): 89%
solvent removed from soybean oil after switching to hydrophilic form ([2]; CO2 / carbonated water): 96%
miscibility with soybean oil ([2]; neutral hydrophobic form): miscible with soy oil; also recorded: miscible with soybean oil
retention of BA in the aqueous phase after heating ([2]; soybean oil experiment, 80 °C, 1 h, dioxane internal standard): 11%
time of CO2 bubbling until top layer disappeared ([3]; 1.0 mL water + 1.0 mL BA): roughly 30 minutes
time of air bubbling after which second layer was noted ([3]; room temperature): approximately 5 hours
maximum wavelength of absorption (λmax) of Nile Red [4]: 510 nm
